# Data from patent US10093630B2, “Pyrazole compounds and methods of making and using same” (ABIDE THERAPEUTICS, INC., priority 2014, dated 2018).
# Where two headings read alike, the source gives them in different places.
# Experiments:
# Assay in all cases: In vitro competitive activity-based protein profiling (gel-based, FP-Rh or HT-01 probe)
# Assay type in all cases: biochemical
# ABHD6 = molecular target: T1, ABHD6 (Mus musculus, UniProt Q8R2Y0); settings: for inhibition at 1 µM: 1 μM inhibitor, read-out: % Inhibition at 1 μM, C = ABHD6; for inhibition at 10 µM: 10 μM inhibitor, read-out: % Inhibition at 10 μM, C = ABHD6; for IC50: mouse brain membrane fraction or cell lysates, 30 min preincubation at 37° C., read-out: Mouse (IC50 value, nM) ABHD6
# T1 construct: Proteomes (mouse brain membrane fraction or cell lysates); from tissue; host or cells: mouse brain membrane fraction (or cell lysates, not specified)
# T1 sequence (Q8R2Y0 1-336): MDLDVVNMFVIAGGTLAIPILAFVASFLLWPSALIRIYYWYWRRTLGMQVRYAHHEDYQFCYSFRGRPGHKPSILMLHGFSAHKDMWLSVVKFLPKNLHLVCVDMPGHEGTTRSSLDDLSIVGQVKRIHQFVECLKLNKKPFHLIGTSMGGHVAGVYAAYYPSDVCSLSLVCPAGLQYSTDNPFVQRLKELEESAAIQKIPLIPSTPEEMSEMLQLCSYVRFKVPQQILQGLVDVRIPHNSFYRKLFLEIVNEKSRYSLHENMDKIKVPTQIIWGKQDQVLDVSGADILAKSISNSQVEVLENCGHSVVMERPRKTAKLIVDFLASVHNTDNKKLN
# Method in brief: (§1)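 Mouse brain membrane or cell lysate proteomes (1.0 mg/mL) preincubated with inhibitors 30 min at 37° C, then labelled with FP-Rh or HT-01 for 30 min at 37° C. After SDS-PAGE, activity quantified from fluorescent band intensity.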
# FAAH = molecular target: T2, FAAH (Mus musculus, UniProt O08914); settings: for inhibition at 1 µM: 1 μM inhibitor, read-out: % Inhibition at 1 μM, B = FAAH; for inhibition at 10 µM: 10 μM inhibitor, read-out: % Inhibition at 10 μM, B = FAAH; for IC50: mouse brain membrane fraction or cell lysates, 30 min preincubation at 37° C., read-out: Mouse (IC50 value, nM) FAAH
# T2 construct: Proteomes (mouse brain membrane fraction or cell lysates); from tissue; host or cells: mouse brain membrane fraction (or cell lysates, not specified)
# T2 sequence (O08914 1-579): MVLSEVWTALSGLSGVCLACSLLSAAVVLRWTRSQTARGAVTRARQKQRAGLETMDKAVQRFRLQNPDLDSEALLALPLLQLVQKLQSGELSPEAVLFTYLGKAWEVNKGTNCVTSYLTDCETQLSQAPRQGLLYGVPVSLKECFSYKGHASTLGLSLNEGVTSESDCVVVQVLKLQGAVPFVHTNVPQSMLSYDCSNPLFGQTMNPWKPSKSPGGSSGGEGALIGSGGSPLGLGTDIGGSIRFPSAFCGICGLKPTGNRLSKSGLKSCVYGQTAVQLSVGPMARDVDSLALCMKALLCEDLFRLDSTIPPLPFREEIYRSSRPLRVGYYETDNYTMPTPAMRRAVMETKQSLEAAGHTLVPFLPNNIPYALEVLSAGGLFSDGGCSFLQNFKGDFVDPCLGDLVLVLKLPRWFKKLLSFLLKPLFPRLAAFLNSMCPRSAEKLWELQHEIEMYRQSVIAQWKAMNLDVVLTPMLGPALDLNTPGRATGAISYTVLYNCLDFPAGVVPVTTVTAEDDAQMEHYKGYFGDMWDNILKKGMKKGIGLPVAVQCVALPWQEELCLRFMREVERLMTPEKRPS
# Method in brief: as §1
# MAGL = molecular target: T3, MAGL (Mus musculus, UniProt O35678); settings: for inhibition at 1 µM: 1 μM inhibitor; for inhibition at 10 µM: 10 μM inhibitor; for IC50: mouse brain membrane fraction or cell lysates, 30 min preincubation at 37° C., read-out: Mouse (IC50 value, nM) MAGL
# T3 construct: Proteomes (mouse brain membrane fraction or cell lysates); from tissue; host or cells: mouse brain membrane fraction (or cell lysates, not specified)
# T3 sequence (O35678 1-303): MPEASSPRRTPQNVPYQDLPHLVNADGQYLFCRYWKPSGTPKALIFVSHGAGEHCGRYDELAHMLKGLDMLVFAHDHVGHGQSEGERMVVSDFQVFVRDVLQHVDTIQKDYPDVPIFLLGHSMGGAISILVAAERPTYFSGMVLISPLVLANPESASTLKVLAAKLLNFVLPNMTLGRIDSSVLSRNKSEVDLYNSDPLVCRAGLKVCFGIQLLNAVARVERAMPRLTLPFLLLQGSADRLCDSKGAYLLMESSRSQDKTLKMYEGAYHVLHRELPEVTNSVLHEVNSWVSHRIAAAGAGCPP
# Method in brief: as §1
# PLA2G7 = molecular target: T4, PLA2G7 (Mus musculus, UniProt Q60963); settings: for inhibition at 1 µM: 1 μM inhibitor, read-out: % Inhibition at 1 μM, D = PLA2G7; for inhibition at 10 µM: 10 μM inhibitor, read-out: % Inhibition at 10 μM, D = PLA2G7; for IC50: mouse brain membrane fraction or cell lysates, 30 min preincubation at 37° C.
# T4 construct: Proteomes (mouse brain membrane fraction or cell lysates); from tissue; host or cells: mouse brain membrane fraction (or cell lysates, not specified)
# T4 sequence (Q60963 22-440): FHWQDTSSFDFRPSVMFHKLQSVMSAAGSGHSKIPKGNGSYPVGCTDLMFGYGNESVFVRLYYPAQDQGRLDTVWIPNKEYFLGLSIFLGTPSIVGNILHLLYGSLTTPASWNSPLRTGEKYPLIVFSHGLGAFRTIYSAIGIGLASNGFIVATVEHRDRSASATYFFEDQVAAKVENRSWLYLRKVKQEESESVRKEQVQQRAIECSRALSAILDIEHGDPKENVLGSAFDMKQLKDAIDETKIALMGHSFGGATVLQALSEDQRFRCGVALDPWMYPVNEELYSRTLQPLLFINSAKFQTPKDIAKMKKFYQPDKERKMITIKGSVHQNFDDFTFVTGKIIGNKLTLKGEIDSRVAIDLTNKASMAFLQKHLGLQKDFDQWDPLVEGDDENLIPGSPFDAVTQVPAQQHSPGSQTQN
# Method in brief: as §1
Compound,inhibition at 1 µM (ABHD6),inhibition at 10 µM (ABHD6),inhibition at 1 µM (FAAH),inhibition at 10 µM (FAAH),inhibition at 1 µM (MAGL),inhibition at 10 µM (MAGL),inhibition at 1 µM (PLA2G7),inhibition at 10 µM (PLA2G7),inhibition at 1 µM (ABHD6; gel-based competitive ABPP),inhibition at 1 µM (FAAH; gel-based competitive ABPP),inhibition at 1 µM (MAGL; gel-based competitive ABPP),inhibition at 1 µM (PLA2G7; gel-based competitive ABPP),IC50 (ABHD6),IC50 (FAAH),IC50 (MAGL),IC50 (PLA2G7),inhibition at 10 µM (ABHD6; gel-based competitive ABPP),inhibition at 10 µM (FAAH; gel-based competitive ABPP),inhibition at 10 µM (MAGL; gel-based competitive ABPP),inhibition at 10 µM (PLA2G7; gel-based competitive ABPP)
"Cc1cc(-c2ccccc2)ccc1CN1CCN(C(=O)n2cc(-c3ccccc3)cn2)CC1 [Example 65, (4-((3-Methyl-[1,1′-biphenyl]-4-yl)methyl)piperazin-1-yl)(4-phenyl-1H-pyrazol-1-yl)methanone]",> 75%,> 75%,> 75%,> 75%,< 25%,> 75%,> 75%,> 75%,,,,,,,,,,,,
"CC(=O)N(C)CCN(C)C(=O)n1cc(C(F)(F)F)cn1 [Example 159, N-Methyl-N-(2-(N-methylacetamido)ethyl)-4-(trifluoromethyl)-1H-pyrazole-1-carboxamide]",< 25%,> 75%,< 25%,25 to 75%,< 25%,< 25%,< 25%,> 75%,,,,,,,,,,,,
"CCN(Cc1ccc(OC)cc1)C(=O)n1cc(Cl)cn1 [Example 129, 4-Chloro-N-ethyl-N-(4-methoxybenzyl)-1H-pyrazole-1-carboxamide]",< 25%,25 to 75%,> 75%,> 75%,< 25%,> 75%,< 25%,< 25%,,,,,> 1000 nM,100 to 1000 nM,> 1000 nM,,,,,
"Cc1cnn(C(=O)N2CCCN(C(=O)c3ccccc3)CC2)c1 [Example 169, (4-Benzoyl-1,4-diazepan-1-yl)(4-methyl-1H-pyrazol-1-yl)methanone]",,25 to 75%,,< 25%,,25 to 75%,,< 25%,,,,,,,,,,,,
"CS(=O)(=O)N1CCCN(C(=O)n2cc(C#N)cn2)CC1 [Example 178, 1-(4-(methylsulfonyl)-1,4-diazepane-1-carbonyl)-1H-pyrazole-4-carbonitrile]",< 25%,> 75%,< 25%,> 75%,< 25%,> 75%,< 25%,25 to 75%,,,,,,,,,,,,
"CN1CCN(C(=O)n2cc(C#N)cn2)CC1 [Example 175, 1-(4-Methylpiperazine-1-carbonyl)-1H-pyrazole-4-carbonitrile]",> 75%,> 75%,25 to 75%,> 75%,25 to 75%,> 75%,< 25%,> 75%,,,,,,,,,,,,
"CCN(Cc1ccc(Cl)cc1)C(=O)n1cc(C(F)(F)F)cn1 [Example 253, N-(4-Chlorobenzyl)-N-ethyl-4-(trifluoromethyl)-1H-pyrazole-1-carboxamide]",,,,,,,,,< 25%,> 75%,25 to 75%,< 25%,> 1000 nM,< 100 nM,> 1000 nM,> 1000 nM,,,,
"N#Cc1cnn(C(=O)N2CCCN(Cc3ccc(OCc4ccccc4)cc3)CC2)c1 [Example 303, 1-(4-(4-(Benzyloxy)benzyl)-1,4-diazepane-1-carbonyl)-1H-pyrazole-4-carbonitrile]",,,,,,,,,< 25%,> 75%,> 75%,< 25%,,,,,,,,
"CCN(Cc1cccc(OC)c1)C(=O)n1cc(C#N)cn1 [Example 249, 4-Cyano-N-ethyl-N-(3-methoxybenzyl)-1H-pyrazole-1-carboxamide]",,,,,,,,,< 25%,> 75%,> 75%,< 25%,> 1000 nM,< 100 nM,100 to 1000 nM,,> 75%,> 75%,> 75%,25 to 75%
"CS(=O)(=O)N1CCN(C(=O)n2cc(Cl)cn2)CC1 [Example 184, (4-Chloro-1H-pyrazol-1-yl)(4-(methylsulfonyl)piperazin-1-yl)methanone]",> 75%,> 75%,< 25%,25 to 75%,< 25%,< 25%,> 75%,> 75%,,,,,,,,,,,,

# Other lines, results leading:
inhibition at 1 µM (ABHD6),inhibition at 10 µM (ABHD6),inhibition at 1 µM (FAAH),inhibition at 10 µM (FAAH),inhibition at 1 µM (MAGL),inhibition at 10 µM (MAGL),inhibition at 1 µM (PLA2G7),inhibition at 10 µM (PLA2G7),inhibition at 1 µM (ABHD6; gel-based competitive ABPP),inhibition at 1 µM (FAAH; gel-based competitive ABPP),inhibition at 1 µM (MAGL; gel-based competitive ABPP),inhibition at 1 µM (PLA2G7; gel-based competitive ABPP),IC50 (ABHD6),IC50 (FAAH),IC50 (MAGL),IC50 (PLA2G7),inhibition at 10 µM (ABHD6; gel-based competitive ABPP),inhibition at 10 µM (FAAH; gel-based competitive ABPP),inhibition at 10 µM (MAGL; gel-based competitive ABPP),inhibition at 10 µM (PLA2G7; gel-based competitive ABPP),Compound
,,,,,,,,< 25%,25 to 75%,25 to 75%,< 25%,,,,,,,,,"CCN(Cc1ccc(N2CCOCC2)cc1)C(=O)n1cc(Cl)cn1 [Example 267, 4-Chloro-N-ethyl-N-(4-morpholinobenzyl)-1H-pyrazole-1-carboxamide]"
,,,,,,,,> 75%,> 75%,> 75%,> 75%,< 100 nM,< 100 nM,< 100 nM,< 100 nM,,,,,"O=C(N1CCN(Cc2ccccc2F)CC1)n1cc(C(F)(F)F)cn1 [Example 276, (4-(2-Fluorobenzyl)piperazin-1-yl)(4-(trifluoromethyl)-1H-pyrazol-1-yl)methanone]"
> 75%,> 75%,,> 75%,,25 to 75%,> 75%,> 75%,,,,,100 to 1000 nM,,,,,,,,"O=C(N1CCN(Cc2ccncc2)CC1)n1cc(-c2ccccc2)cn1 [Example 59, (4-Phenyl-1H-pyrazol-1-yl)(4-(pyridin-4-ylmethyl)piperazin-1-yl)methanone]"
> 75%,,> 75%,,> 75%,,> 75%,,,,,,,,,,,,,,"O=C(N1CCN(Cc2ccc(N3CCOCC3)cc2)CC1)n1cc(Cl)cn1 [Example 217, (4-Chloro-1H-pyrazol-1-yl)(4-(4-morpholinobenzyl)piperazin-1-yl)methanone]"
< 25%,> 75%,,< 25%,,< 25%,< 25%,> 75%,,,,,,,,,,,,,"O=C(c1cnn(C(=O)N2CCN(Cc3cncnc3)CC2)c1)N1CCC1 [Example 92, Azetidin-1-yl(1-(4-(pyrimidin-5-ylmethyl)piperazine-1-carbonyl)-1H-pyrazol-4-yl)methanone]"
